Source: patent publication US20050124562A1, “Bis-quinazoline compounds for the treatment of bacterial infections” (priority 2003, published 2005)
Values after ≈ are worked out from the molar mass of the structure shown. Where a name gives a salt, the structure may show the parent alone. Read-outs that look alike come from different tables or passages of the source.

Experiments:
Type in all cases: cell-based
[1] = test system: efflux mutants of P. aeruginosa; test: Broth microdilution MIC (NCCLS), P. aeruginosa efflux mutants; details: for MICs: efflux mutants of P. aeruginosa; for MIC: Pseudomonas aeruginosa, read-out: MICs
Procedure: (§1) Representative bis-quinazolines were tested for antibacterial activity using the […] microdilution method to determine their minimum inhibitory concentrations (MICs). All compounds were tested using standard methods in accordance with NCCLS guidelines (National Committee for Clinical Laboratory Standards. 2003. Methods for dilution antimicrobial susceptibility testing for bacteria that grow aerobically. Approved Standard M-7 A-6, NCCLS, Wayne, Pa.). The bacterial strains used in the susceptibility tests were obtained from the American Type Culture Collection (ATCC) and included resistant phenotypes such as oxacillin-resistant S. aureus (ORSA) and vancomycin-resistant enterococci (VRE). The minimum bactericidal concentrations (MBCs) were determined for selected organisms. The effect of protein binding on the antibacterial activity of representative bis-quinazolines were determined by conducting MIC tests in the presence of human serum.

[2] = test system: S. aureus, E. faecalis, S. pyogenes and S. pneumoniae; test: Broth microdilution MIC (NCCLS), gram-positive strains
Procedure: as §1

H. influenzae = test: Broth microdilution MIC (NCCLS), H. influenzae; details: Haemophilus influenzae; some strains of H. influenzae
Procedure: as §1

M. catarrhalis = test: Broth microdilution MIC (NCCLS), M. catarrhalis; details: Moraxella catarrhalis, read-out: MIC range
Procedure: as §1

[3] = test system: efflux mutants of E. coli; test: Broth microdilution MIC (NCCLS), E. coli efflux mutants; details: Escherichia coli, read-out: MICs
Procedure: as §1

[4] = range against some strains of S. aureus, E. faecalis, S. pyogenes and S. pneumoniae, read-out: MIC

Compound | MIC (H. influenzae) [µg/mL] | MIC [3] [µg/mL] | MIC [1] [µg/mL] | MIC [2, 4] [µg/mL] | other results
2-[4-Hydroxy-6-(2-morpholin-4-yl-ethoxy)-quinazolin-2-ylamino]-6,7-dimethoxy-quinazolin-4-ol trifluoroacetate salt [Example 150] | – | – | – | – | MICs [1]: 64 µg/mL
Cc1nc(Nc2nc(C)c3ccc4c(c3n2)OCCO4)nc2ccc(OCCN3CCC(O)C3)cc12 (centres unmarked) [Example 12, 1-{2-[4-Methyl-2-(8-methyl-2,3-dihydro-1,4-dioxa-5,7-diaza-phenanthren-6-ylamino)-quinazolin-6-yloxy]-ethyl}-pyrrolidin-3-ol] | 16 to 32 (≈ 32.8 to 65.5 µM) | 16 to 64 (≈ 32.8 to 131 µM) | 64 (≈ 131 µM) | – | MIC [2]: 0.06 to 16 µg/mL (≈ 0.123 to 32.8 µM); MIC (M. catarrhalis): 2 to 64 µg/mL (≈ 4.09 to 131 µM)
COc1ccc2nc(Nc3nc(O)c4cc(OC)c(OC)c(OC)c4n3)nc(C)c2c1.O=C(O)C(F)(F)F [Example 18, 6,7,8-Trimethoxy-2-(6-methoxy-4-methyl-quinazolin-2-ylamino)-quinazolin-4-ol trifluoroacetate salt] | 16 to 32 | 16 to 64 | 64 | 0.06 to 16 | MIC (M. catarrhalis; some strains of M. catarrhalis): 2 to 64 µg/mL
COc1ccc2nc(Nc3nc(O)c4cc(C)cc(C)c4n3)nc(C)c2c1 [Example 19, 2-(6-Methoxy-4-methyl-quinazolin-2-ylamino)-6,8-dimethyl-quinazolin-4-ol] | 16 to 32 (≈ 44.3 to 88.5 µM) | 16 to 64 (≈ 44.3 to 177 µM) | 64 (≈ 177 µM) | – | MIC [2]: 0.06 to 16 µg/mL (≈ 0.166 to 44.3 µM); MIC (M. catarrhalis): 2 to 64 µg/mL (≈ 5.53 to 177 µM)
COc1ccc2nc(Nc3nc(O)c4cc(C)cc(Br)c4n3)nc(C)c2c1 [Example 39, 8-Bromo-2-(6-methoxy-4-methyl-quinazolin-2-ylamino)-6-methyl-quinazolin-4-ol trifluoroacetate salt] | 16 to 32 | 16 to 64 | 64 | – | MIC [2]: 0.06 to 16 µg/mL; MIC (M. catarrhalis): 2 to 64 µg/mL
COc1cc2nc(Nc3nc(O)c4cc([N+](=O)[O-])cc(C)c4n3)nc(C)c2cc1OC.O=C(O)C(F)(F)F [Example 66] | – | – | – | – | MICs [1]: 64 µg/mL
COc1cc2c(C)nc(Nc3nc(O)c4cccc(OC)c4n3)nc2cc1[N+](=O)[O-].O=C(O)C(F)(F)F [Example 77, 2-(6-methoxy-7-nitro-4-methyl-quinazolin-2-ylamino)-8-methoxy-quinazolin-4-ol trifluoroacetate salt] | 16 to 32 | 16 to 64 | 64 | 0.06 to 16 | MIC (M. catarrhalis; some strains of M. catarrhalis): 2 to 64 µg/mL
COc1cc2nc(Nc3nc(O)c4c(OC)cccc4n3)nc(C)c2cc1OC.O=C(O)C(F)(F)F [Example 84, 2-(6,7-Dimethoxy-4-methyl-quinazolin-2-ylamino)-5-methoxy-quinazolin-4-ol trifluoroacetate salt] | 16 to 32 | 16 to 64 | 64 | 0.06 to 16 | MIC (M. catarrhalis; some strains of M. catarrhalis): 2 to 64 µg/mL
COc1cc(OC)c2nc(Nc3nc(O)c4c(OC)cccc4n3)nc(C)c2c1.O=C(O)C(F)(F)F [Example 85, 2-(6,8-Dimethoxy-4-methyl-quinazolin-2-ylamino)-5-methoxy-quinazolin-4-ol trifluoroacetate salt] | 16 to 32 | 16 to 64 | 64 | 0.06 to 16 | MIC (M. catarrhalis; some strains of M. catarrhalis): 2 to 64 µg/mL
COc1cc2c(C)nc(Nc3nc(O)c4cccc(OC)c4n3)nc2cc1F.O=C(O)C(F)(F)F [Example 86, 2-(7-Fluoro-6-methoxy-4-methyl-quinazolin-2-ylamino)-8-methoxy-quinazolin-4-ol trifluoroacetate salt] | 16 to 32 | 16 to 64 | 64 | 0.06 to 16 | MIC (M. catarrhalis; some strains of M. catarrhalis): 2 to 64 µg/mL
COc1cc2nc(Nc3nc(O)c4cccc(OC)c4n3)nc(CF)c2cc1OC.O=C(O)C(F)(F)F [Example 87, 2-(4-Fluoromethyl-6,7-dimethoxy-quinazolin-2-ylamino)-8-methoxy-quinazolin-4-ol trifluoroacetate salt] | 16 to 32 | 16 to 64 | 64 | 0.06 to 16 | MIC (M. catarrhalis; some strains of M. catarrhalis): 2 to 64 µg/mL
COc1cc2nc(Nc3nc(O)c4cc(OCCN5CCC(O)C5)ccc4n3)nc(C)c2cc1OC.O=C(O)C(F)(F)F (centres unmarked) [Example 155, 2-(6,7-Dimethoxy-4-methyl-quinazolin-2-ylamino)-6-[2-(3-hydroxy-pyrrolidin-1-yl)-ethoxy]-quinazolin-4-ol trifluoroacetate salt] | – | – | – | – | MICs [1]: 64 µg/mL
COc1cc2nc(Nc3nc(O)c4cc(OCCN5CCC(O)C5)ccc4n3)nc(C)c2cc1OC.O=C(O)C(F)(F)F (centres unmarked) [Example 156, 2-(6,7-Dimethoxy-4-methyl-quinazolin-2-ylamino)-6-[2-(3-hydroxy-pyrrolidin-1-yl)-ethoxy]-quinazolin-4-ol trifluoroacetate salt] | – | – | – | – | MICs [1]: 64 µg/mL
COc1cc2nc(Nc3nc(O)c4cc(OCCNC(CO)CC(C)C)ccc4n3)nc(C)c2cc1OC (centres unmarked) [Example 162, 2-(6,7-Dimethoxy-4-methyl-quinazolin-2-ylamino)-6-{2-[(1-hydroxymethyl-3-methylbutyl)-amino]-ethoxy}-quinazolin-4-olTrifluoroacetate salt] | – | – | – | – | MICs [1]: 64 µg/mL
COc1cc(OC)c2nc(Nc3nc(O)c4cc(OCCN5CCCC5CO)ccc4n3)nc(C)c2c1.O=C(O)C(F)(F)F (centres unmarked) [Example 168, 2-(6,8-Dimethoxy-4-methyl-quinazolin-2-ylamino)-6-[2-(2-hydroxymethyl-pyrrolidin-1-yl)-ethoxy]-quinazolin-4-ol trifluoroacetate salt] | – | – | – | 0.06 to 16 | –
COc1cc2nc(Nc3nc(O)c4cc(OCCN5CCCCC5CO)ccc4n3)nc(C)c2cc1OC.O=C(O)C(F)(F)F (centres unmarked) [Example 173, 2-(6,7-Dimethoxy-4-methyl-quinazolin-2-ylamino)-6-[2-(2-hydroxymethyl-piperidin-1-yl)-ethoxy]-quinazolin-4-ol trifluoroacetate salt] | – | – | – | 0.06 to 16 | –
COc1cc2nc(Nc3nc(O)c4cc(OCCn5cnnc5)ccc4n3)nc(C)c2cc1OC.O=C(O)C(F)(F)F [Example 174, 2-(6,7-Dimethoxy-4-methyl-quinazolin-2-ylamino)-6-(2-[1,2,4]triazol-4-yl-ethoxy)-quinazolin-4-ol trifluoroacetate salt] | – | – | – | 0.06 to 16 | –
COc1cc2nc(Nc3nc(O)c4cc(OCCN5CCN(CCO)CC5)ccc4n3)nc(C)c2cc1OC.O=C(O)C(F)(F)F [Example 175, 2-(6,7-Dimethoxy-4-methyl-quinazolin-2-ylamino)-6-{2-[4-(2-hydroxy-ethyl)-piperazin-1-yl]-ethoxy}-quinazolin-4-ol trifluoroacetate salt] | – | – | – | 0.06 to 16 | –
COc1cc2nc(Nc3nc(O)c4cc(OCCNNCCO)ccc4n3)nc(C)c2cc1OC.O=C(O)C(F)(F)F [Example 176, 2-(6,7-Dimethoxy-4-methyl-quinazolin-2-ylamino)-6-{2-[N′-(2-hydroxy-ethyl)-hydrazino]-ethoxy}-quinazolin-4-ol trifluoroacetate salt] | – | – | – | 0.06 to 16 | –
COc1cc2nc(Nc3nc(O)c4cc(OCCN5CC(C)OC(C)C5)ccc4n3)nc(C)c2cc1OC.O=C(O)C(F)(F)F (centres unmarked) [Example 177, 2-(6,7-Dimethoxy-4-methyl-quinazolin-2-ylamino)-6-[2-(2,6-dimethyl-morpholin-4-yl)-ethoxy]-quinazolin-4-ol trifluoroacetate salt] | – | – | – | 0.06 to 16 | –
COc1cc2nc(Nc3nc(O)c4cc(OCCNCCOCCO)ccc4n3)nc(C)c2cc1OC.O=C(O)C(F)(F)F [Example 179, 2-(6,7-Dimethoxy-4-methyl-quinazolin-2-ylamino)-6-{2-[2-(2-hydroxy-ethoxy)-ethylamino]-ethoxy}-quinazolin-4-ol trifluoroacetate salt] | – | – | – | 0.06 to 16 | –
COc1cc2nc(Nc3nc(O)c4cc(OCCN5CCCC5CN5CCCC5)ccc4n3)nc(C)c2cc1OC.O=C(O)C(F)(F)F (centres unmarked) [Example 180, 2-(6,7-Dimethoxy-4-methyl-quinazolin-2-ylamino)-6-[2-(2-pyrrolidin-1-ylmethyl-pyrrolidin-1-yl)-ethoxy]-quinazolin-4-ol trifluoroacetate salt] | – | – | – | 0.06 to 16 | –
COc1cc2nc(Nc3nc(O)c4cc(OCCNC5CCCCC5O)ccc4n3)nc(C)c2cc1OC.O=C(O)C(F)(F)F (centres unmarked) [Example 181, 2-(6,7-Dimethoxy-4-methyl-quinazolin-2-ylamino)-6-[2-(2-hydroxy-cyclohexylamino)-ethoxy]-quinazolin-4-ol trifluoroacetate salt] | – | – | – | 0.06 to 16 | –
COc1cc2nc(Nc3nc(O)c4cc(OCCN(C)Cc5cccnc5)ccc4n3)nc(C)c2cc1OC.O=C(O)C(F)(F)F [Example 182, 2-(6,7-Dimethoxy-4-methyl-quinazolin-2-ylamino)-6-[2-(methyl-pyridin-3-ylmethyl-amino)-ethoxy]-quinazolin-4-ol trifluoroacetate salt] | – | – | – | 0.06 to 16 | –
COc1cc2nc(Nc3nc(O)c4cc(OCCNCCc5ccncc5)ccc4n3)nc(C)c2cc1OC.O=C(O)C(F)(F)F [Example 183, 2-(6,7-Dimethoxy-4-methyl-quinazolin-2-ylamino)-6-[2-(2-pyridin-4-yl-ethylamino)-ethoxy]-quinazolin-4-ol TFA salt] | – | – | – | 0.06 to 16 | –
COc1cc2nc(Nc3nc(O)c4cc(OCCN(C)Cc5ccncc5)ccc4n3)nc(C)c2cc1OC.O=C(O)C(F)(F)F [Example 184, 2-(6,7-Dimethoxy-4-methyl-quinazolin-2-ylamino)-6-[2-(methyl-pyridin-4-ylmethyl-amino)-ethoxy]-quinazolin-4-ol TFA salt] | – | – | – | 0.06 to 16 | –
